Laboratory results published in US5378838A, “Benzodiazepine cholecystokinin antagonists” (Merck & Co., Inc., priority 1993, dated 1995).
Like-named read-outs stand apart in the source and are kept apart here. Non-standard residues stand in square brackets, D forms with d. Residues, ends and D or L forms follow the SMILES beside them. *: point of attachment. sY = N[C@@H](Cc1ccc(OS(=O)(=O)O)cc1)C(=O)O; Cbz = O=C(OCc1ccccc1)*

Legend:
[1] = system: CCK; details: literature; cited from earlier work
[2] = system: CCK-B receptors; details: literature; cited from earlier work
[3] = molecular target: T1, CCK receptor (pancreas) (Rattus norvegicus, UniProt P30551); assay: CCK Receptor Binding (Pancreas), inhibition of 125I-CCK-8 binding; parameters: species or system rat (male Sprague-Dawley)
T1 construct: The whole pancreas was dissected free of fat tissue and was homogenized; from tissue; host or cells: whole pancreas membranes of male Sprague-Dawley rats
T1 sequence (P30551 1-444): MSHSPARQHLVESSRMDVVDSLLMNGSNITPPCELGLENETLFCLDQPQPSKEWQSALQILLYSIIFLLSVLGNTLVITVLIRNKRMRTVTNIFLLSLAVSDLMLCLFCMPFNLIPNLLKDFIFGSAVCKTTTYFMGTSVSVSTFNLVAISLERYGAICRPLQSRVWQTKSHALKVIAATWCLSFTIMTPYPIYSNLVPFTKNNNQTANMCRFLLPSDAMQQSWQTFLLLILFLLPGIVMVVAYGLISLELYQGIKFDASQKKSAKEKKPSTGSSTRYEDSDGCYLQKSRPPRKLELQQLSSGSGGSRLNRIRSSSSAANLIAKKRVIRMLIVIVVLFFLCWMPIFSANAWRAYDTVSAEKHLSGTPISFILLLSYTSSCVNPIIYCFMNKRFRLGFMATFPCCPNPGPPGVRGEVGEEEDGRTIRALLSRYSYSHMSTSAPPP
Protocol: 1. CCK Receptor Binding (Pancreas)
Male Sprague-Dawley rats (150-200 g) were sacrificed by decapitation. The whole pancreas was dissected free of fat tissue and was homogenized in 25 volumes of ice-cold 10 mM Hepes buffer with 0.1% soya bean trypsin inhibitor (pH 7.4 at 25° C.) with a Kinematica Polytron. The homogenates were centrifuged at 47,800 g for 10 min. Pellets were resuspended in 10 volumes of binding assay buffer (20 mM Hepes, 1 mM EGTA, 5 mM MgCl2, 150 mM NaCl, bacitracin 0.25 mg/ml, soya bean trypsin inhibitor 0.1 mg/ml, and bovine serum albumin 2 mg/ml, pH 6.5 at 25° C.) using a teflon homogenizer, 15 strokes at 500 rpm. The homogenate was further diluted in binding assay buffer to give a final concentration of 0.5 mg original wet weight/l ml buffer. […] All assays were run in duplicate. The reaction mixtures were incubated at 25° C. for 2 hours and the reaction terminated by rapid filtration (Brandell 24 well cell harvester) over Whatman GF/C filters, washing 3×4 mls with ice-cold 100 mM NaCl. The radioactivity on the filters was counted with a LKB gamma counter.
Drug displacement studies were performed with at least 10 concentrations of compounds of formula 1 and the IC50 values were determined by regression analysis.

[4] = molecular target: T2, CCK receptor (brain) (Cavia porcellus, UniProt H0VZC5); assay: CCK Receptor Binding (Brain), inhibition of 125I-CCK-8 binding; parameters: species or system guinea pig (male Hartley); details: guinea pig cortex, 50 pM 125I-CCK-8, pH 6.5, 25° C., 2 hours
T2 construct: the cortex was removed and homogenized in 25 mL ice-cold 0.32M sucrose; from tissue; host or cells: cortex P2 membranes of male Hartley guinea pigs
T2 sequence (H0VZC5 1-426): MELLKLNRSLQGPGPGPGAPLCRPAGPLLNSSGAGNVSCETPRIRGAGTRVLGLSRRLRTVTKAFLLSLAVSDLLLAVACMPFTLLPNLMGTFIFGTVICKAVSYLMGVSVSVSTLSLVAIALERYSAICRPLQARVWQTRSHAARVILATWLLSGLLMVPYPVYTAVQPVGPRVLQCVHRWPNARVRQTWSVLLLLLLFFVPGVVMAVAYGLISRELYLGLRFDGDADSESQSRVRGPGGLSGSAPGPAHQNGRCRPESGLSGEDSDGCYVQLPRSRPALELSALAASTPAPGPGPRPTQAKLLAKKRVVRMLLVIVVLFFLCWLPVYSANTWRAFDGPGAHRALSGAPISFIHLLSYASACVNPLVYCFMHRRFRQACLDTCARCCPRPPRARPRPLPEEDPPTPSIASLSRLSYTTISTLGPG
Protocol: CCK-8 sulphated was radiolabelled and the binding was performed according to the description for the pancreas method with minor modifications.
Male Hartley guinea pigs (300-500g) were sacrificed by decapitation and the cortex was removed and homogenized in 25 mL ice-cold 0.32M sucrose. The homogenates were centrifuged at 1000 g for 10 minutes and the resulting supernatant was recentrifuged at 20,000 g for 20 minutes. […] All assays were run in duplicate. The reaction mixtures were incubated at 25° C. for 2 hours and then the reaction was terminated on Whatman GF/C filters by rapid filtration (Brandell 24 well cell Harvester) with 3×5 ml washes of cold 100 mM NaCl. The radioactivity on the filters was then counted with a LKB gamma counter.
Drug displacement studies were performed with at least 10 concentrations of compounds of formula 1 and the IC50 values were determined by regression analysis. IC50 refers to the concentration of the compound required to inhibit 50% of specific binding of ^125 I-CCK-8.

SMILES	CCK antagonist / agonist activity (in words) [1]	IC50 [4] [nM]	further results
CCCC(=O)Nc1nc2c(ncn2[C@@H]2O[C@@H]3COP(=O)(O)O[C@H]3[C@H]2OC(=O)CCC)c(=O)[nH]1 [dibutyryl cyclic GMP]	the most potent		
CSCC[C@H](NC(=O)[C@H](Cc1ccc(OS(=O)(=O)O)cc1)NC(=O)OCc1ccccc1)C(=O)NCC(=O)N[C@@H](Cc1c[nH]c2ccccc12)C(=O)N[C@@H](CCSC)C(=O)N[C@@H](CC(=O)O)C(N)=O [Cbz-Tyr(SO3 H)-Met-Gly-Trp-Met-Asp-NH2] (Cbz-[sY]MGWMD-NH2)	partial agonist		
Cc1cccc(NC(=O)N[C@@H]2N=C(c3ccccc3)c3ccccc3N(C)C2=O)c1 [(R)-N-(2,3-dihydro-1-methyl-2-oxo-5-phenyl-1H-1,4-benzodiazepin-3-yl)-N^1-(3-methylphenyl) urea]			antagonist of CCK-B receptors (in words) [2]: potent and selective antagonist of CCK-B receptors
COC(=O)[C@@H](N)Cc1cccc(NC(=O)N[C@@H]2N=C(C3CCCCC3)c3ccccc3N(C)C2=O)c1 [Example 5, N-{(3R)-1,3-Dihydro-1-methyl-2-oxo-5-cyclohexyl-1H-1,4-benzodiazepin-3-yl}-N'-{[3-((2S)-amino-2-methoxycarbonyl)ethylphenyl]-urea}]		9.2	IC50 ([3]; rat pancreas, 50 pM 125I-CCK-8, pH 6.5, 25° C., 2 hours, read-out: IC50 125I-CCK Pancreas): 924 nM
CN1C(=O)[C@H](NC(=O)Nc2cccc3c2CCC(N)(C(=O)O)C3)N=C(c2ccccc2)c2ccccc21 (stereo partly drawn) [Example 23, N-{(3R)-1,3-Dihydro-1-methyl-2-oxo-5-phenyl-1H-1,4-benzodiazepin-3-yl}-N'-{[5-(2-(R,S)-amino-1,2,3,4-tetrahydro-2-naphthoic acid)]-urea}]		> 3000	IC50 [3]: > 3000 nM
COC(=O)C1(NC(=O)OC(C)(C)C)CCc2cccc(NC(=O)N[C@@H]3N=C(c4ccccc4)c4ccccc4N(C)C3=O)c2C1 (stereo partly drawn) [Example 14, N-{(3R)-1,3-Dihydro-1-methyl-2-oxo-5-phenyl-1H-1,4-benzodiazepin-3-yl}-N'-{[8-(methyl-2(R,S)-tert-butyloxycarbonylamino-1,2,3,4-tetrahydro-2-naphthoate)]-urea}]		647	IC50 ([3]; read-out: IC50 125I-CCK Pancreas, rat pancreas, 50 pM 125I-CCK-8, pH 6.5, 25° C., 2 hours): > 3000 nM
